{"source": "patent US20140134648A1", "about": "“METHODS OF DETERMINING THE HEALTH STATUS OF AN INDIVIDUAL” (NODALITY, INC., priority 2008, published 2014)", "system": "CD34+ myeloblast cells in healthy BMMCs", "assay": "Effects of therapeutics on healthy bone marrow mononuclear cells: CD45 versus CD34 expression by flow cytometry", "type": "cell-based", "conditions": "live healthy BMMCs, 1:3 dilutions, 100 μM to 0.0017 μM, after 24 hours", "note": "“Also recorded” adds a separate entry of the source.", "data": [{"smiles": "O=C(CCCCCCC(=O)Nc1ccccc1)NO", "note": "[Vorinostat]", "values": [{"measurement": "loss / viability of the rare population of CD34+ myeloblast cells", "value": "selective loss of rare population of CD34+ myeloblast cells in a dose-dependent fashion; also recorded: concentration dependent loss of CD34+ myeloblast cells"}]}, {"smiles": "Nc1ncn([C@@H]2O[C@H](CO)[C@@H](O)[C@H]2O)c(=O)n1", "note": "[5-Azacytidine]", "values": [{"measurement": "loss / viability of the rare population of CD34+ myeloblast cells", "value": "dose-dependent loss of a rare population of CD34+ myeloblast cells; also recorded: concentration dependent loss of CD34+ myeloblast cells"}]}]}
